Consider 5 compounds from PubChem BioAssay AID1259407 (Chemical Carcinogenesis Research Information System (CCRIS), 2018).

Structures are written as SMILES. The source made the active and inactive calls. No rule for the calls is given here.

The subject of the data set is CCRIS mutagenicity, Ames/micronucleus/aberration tests. Put plainly: CCRIS mutagenicity studies.
[1] abbreviates: Test System: AMES SALMONELLA TYPHIMURIUM, Strain/Indicator: TA98, Metabolic Activation: NONE, Method: PREINCUBATION
Setting [2] is: Test System: AMES SALMONELLA TYPHIMURIUM, Strain/Indicator: TA100, Metabolic Activation: NONE, Method: PREINCUBATION
The mark [3] stands for this setting: Test System: AMES SALMONELLA TYPHIMURIUM, Strain/Indicator: TA98, Metabolic Activation: NONE, Method: STANDARD PLATE.
Where [4] appears, read: Test System: AMES SALMONELLA TYPHIMURIUM, Strain/Indicator: TA98, Metabolic Activation: RAT, LIVER, S-9, AROCLOR 1254, Method: STANDARD PLATE.
Setting [5] is: Test System: AMES SALMONELLA TYPHIMURIUM, Strain/Indicator: TA100, Metabolic Activation: NONE, Method: STANDARD PLATE.
Where [6] appears, read: Test System: AMES SALMONELLA TYPHIMURIUM, Strain/Indicator: TA100, Metabolic Activation: RAT, LIVER, S-9, AROCLOR 1254, Method: STANDARD PLATE.

In the case of `CC[C@H](C)[C@H](NC(=O)[C@@H](NC(=O)[C@H](CCC(=O)O)NC(=O)[C@H](CCSC)NC(=O)[C@H](CC(C)C)NC(=O)[C@H](CCCCN)NC(=O)[C@H](CCCNC(=N)N)NC(=O)[C@H](CC(N)=O)NC(=O)[C@H](CO)NC(=O)[C@H](Cc1c[nH]cn1)NC(=O)[C@H](C)NC(=O)[C@H](CCC(N)=O)NC(=O)[C@H](CCC(N)=O)NC(=O)[C@H](C)NC(=O)[C@H](CC(C)C)NC(=O)[C@H](CCC(N)=O)NC(=O)[C@H](CCC(=O)O)NC(=O)[C@H](C)NC(=O)[C@H](CCCNC(=N)N)NC(=O)[C@H](C)NC(=O)[C@H](CCSC)NC(=O)[C@H](CCC(=O)O)NC(=O)[C@H](CC(C)C)NC(=O)[C@@H](NC(=O)[C@H](CCC(=O)O)NC(=O)[C@H](CCCNC(=N)N)NC(=O)[C@H](CC(C)C)NC(=O)[C@H](CC(C)C)NC(=O)[C@H](Cc1c[nH]cn1)NC(=O)[C@H](Cc1ccccc1)NC(=O)[C@@H](NC(=O)[C@H](CC(C)C)NC(=O)[C@H](CC(=O)O)NC(=O)[C@H](CC(C)C)NC(=O)[C@H](CO)NC(=O)[C@@H](NC(=O)[C@@H]1CCCN1C(=O)[C@@H]1CCCN1C(=O)[C@H](CCC(=O)O)NC(=O)[C@H](CCC(=O)O)NC(=O)[C@@H](N)CO)[C@@H](C)CC)[C@@H](C)O)C(C)C)[C@@H](C)CC)C(N)=O`, the mutagenic call under setting [1] is “inactive; negative”; the mutagenic call (Test System: AMES SALMONELLA TYPHIMURIUM, Strain/Indicator: TA98, Metabolic Activation: RAT, LIVER, S-9, PHENOBARBITAL AND 5,6-BENZOFLAVONE, Method: PREINCUBATION) was “inactive; negative”; the mutagenic call under setting [2] was “inactive; negative”; the mutagenic call (Test System: AMES SALMONELLA TYPHIMURIUM, Strain/Indicator: TA100, Metabolic Activation: RAT, LIVER, S-9, PHENOBARBITAL AND 5,6-BENZOFLAVONE, Method: PREINCUBATION) is “inactive; negative”; the mutagenic call (Test System: AMES SALMONELLA TYPHIMURIUM, Strain/Indicator: TA1535, Metabolic Activation: NONE, Method: PREINCUBATION) is “inactive; negative”; the mutagenic call (Test System: AMES SALMONELLA TYPHIMURIUM, Strain/Indicator: TA1535, Metabolic Activation: RAT, LIVER, S-9, PHENOBARBITAL AND 5,6-BENZOFLAVONE, Method: PREINCUBATION) was “inactive; negative”. Further, the mutagenic call is “inactive; negative” (Test System: AMES SALMONELLA TYPHIMURIUM, Strain/Indicator: TA1537, Metabolic Activation: NONE, Method: PREINCUBATION); “inactive; negative” (Test System: AMES SALMONELLA TYPHIMURIUM, Strain/Indicator: TA1537, Metabolic Activation: RAT, LIVER, S-9, PHENOBARBITAL AND 5,6-BENZOFLAVONE, Method: PREINCUBATION); “inactive; negative” (Test System: E. COLI, Strain/Indicator: WP2 UVRA, Metabolic Activation: NONE, Method: PREINCUBATION); “inactive; negative” (Test System: E. COLI, Strain/Indicator: WP2 UVRA, Metabolic Activation: RAT, LIVER, S-9, PHENOBARBITAL AND 5,6-BENZOFLAVONE, Method: PREINCUBATION).
Consider `CCC(=O)N(c1ccc(Cl)c(Cl)c1)[C@@H]1CCC[C@H]1N(C)C`, for which the mutagenic call was “inactive; negative” under setting [3]; “inactive; negative” under setting [4]; “inactive; negative” under setting [5]; “inactive; negative” under setting [6]; “inactive; negative” (Test System: AMES SALMONELLA TYPHIMURIUM, Strain/Indicator: TA1535, Metabolic Activation: NONE, Method: STANDARD PLATE); “inactive; negative” (Test System: AMES SALMONELLA TYPHIMURIUM, Strain/Indicator: TA1535, Metabolic Activation: RAT, LIVER, S-9, AROCLOR 1254, Method: STANDARD PLATE). In addition, the mutagenic call (Test System: AMES SALMONELLA TYPHIMURIUM, Strain/Indicator: TA1537, Metabolic Activation: NONE, Method: STANDARD PLATE) is “inactive; negative”; the mutagenic call (Test System: AMES SALMONELLA TYPHIMURIUM, Strain/Indicator: TA1537, Metabolic Activation: RAT, LIVER, S-9, AROCLOR 1254, Method: STANDARD PLATE) is “inactive; negative”; the mutagenic call (Test System: AMES SALMONELLA TYPHIMURIUM, Strain/Indicator: TA1538, Metabolic Activation: NONE, Method: STANDARD PLATE) is “inactive; negative”; the mutagenic call (Test System: AMES SALMONELLA TYPHIMURIUM, Strain/Indicator: TA1538, Metabolic Activation: RAT, LIVER, S-9, AROCLOR 1254, Method: STANDARD PLATE) was “inactive; negative”; the mutagenic call (Test System: CHINESE HAMSTER OVARY, Strain/Indicator: CHO-K1-BH4 (HGPRT), Metabolic Activation: NONE) is “inactive; negative”; the mutagenic call (Test System: CHINESE HAMSTER V-79, Strain/Indicator: V-79/6-THIOGUANINE, Metabolic Activation: NONE) is “inactive; negative”. In addition, the mutagenic call reads like this: (Test System: CHINESE HAMSTER V-79, Strain/Indicator: V-79/6-THIOGUANINE, Metabolic Activation: RAT, LIVER, S-9, AROCLOR 1254) “inactive; negative”; (Test System: UDS RODENT HEPATOCYTES, Strain/Indicator: THY INCORP, Metabolic Activation: NONE) “inactive; negative”.
As to `ClC(Cl)=C(Cl)c1ccc(Cl)c(Cl)c1Cl`, the mutagenic call by setting is: under setting [3], “inactive; negative”; under setting [4], “inactive; negative”; under setting [5], “inactive; negative”; under setting [6], “inactive; negative”.
On to `O=C1C(c2[nH]c3ccc(S(=O)(=O)O)cc3c2O)=Nc2ccc(S(=O)(=O)O)cc21`, for which the mutagenic call reads like this: under setting [1], “inactive; negative”; (Test System: AMES SALMONELLA TYPHIMURIUM, Strain/Indicator: TA98, Metabolic Activation: S-9, Method: PREINCUBATION) “inactive; negative”; under setting [2], “inactive; negative”; (Test System: AMES SALMONELLA TYPHIMURIUM, Strain/Indicator: TA100, Metabolic Activation: S-9, Method: PREINCUBATION) “inactive; negative”; (Test System: Mouse lymphoma, Strain/Indicator: L5178Y (tk+/tk-), Metabolic Activation: None, Method: Suspension/plate) “inactive; negative”; (Test System: Mouse lymphoma, Strain/Indicator: L5178Y (tk+/tk-), Metabolic Activation: Rat, liver, S-9, Aroclor 1254, Method: Suspension/plate) “active; positive”.
`CC(Br)(CCl)CBr` (stereo not drawn): the mutagenic call is “inactive; negative” (Test System: AMES SALMONELLA TYPHIMURIUM, Strain/Indicator: TA98, Metabolic Activation: NONE, Method: FLASK ASSAY); “inactive; negative” (Test System: AMES SALMONELLA TYPHIMURIUM, Strain/Indicator: TA98, Metabolic Activation: RAT, LIVER, S-9, AROCLOR 1254, Method: FLASK ASSAY); “inactive; negative” (Test System: AMES SALMONELLA TYPHIMURIUM, Strain/Indicator: TA100, Metabolic Activation: NONE, Method: FLASK ASSAY); “inactive; negative” (Test System: AMES SALMONELLA TYPHIMURIUM, Strain/Indicator: TA100, Metabolic Activation: RAT, LIVER, MICROSOMES, PHENOBARBITAL, Method: PREINCUBATION); “inactive; negative” (Test System: AMES SALMONELLA TYPHIMURIUM, Strain/Indicator: TA100, Metabolic Activation: RAT, LIVER, MICROSOMES, Method: PREINCUBATION); “inactive; negative” (Test System: AMES SALMONELLA TYPHIMURIUM, Strain/Indicator: TA100, Metabolic Activation: RAT, LIVER, S-9, AROCLOR 1254, Method: FLASK ASSAY). In addition, the mutagenic call (Test System: AMES SALMONELLA TYPHIMURIUM, Strain/Indicator: TA1535, Metabolic Activation: NONE, Method: FLASK ASSAY) is “inactive; negative”; the mutagenic call (Test System: AMES SALMONELLA TYPHIMURIUM, Strain/Indicator: TA1535, Metabolic Activation: RAT, LIVER, S-9, AROCLOR 1254, Method: FLASK ASSAY) was “inactive; negative”; the mutagenic call (Test System: AMES SALMONELLA TYPHIMURIUM, Strain/Indicator: TA1537, Metabolic Activation: NONE, Method: FLASK ASSAY) was “inactive; negative”; the mutagenic call (Test System: AMES SALMONELLA TYPHIMURIUM, Strain/Indicator: TA1537, Metabolic Activation: RAT, LIVER, S-9, AROCLOR 1254, Method: FLASK ASSAY) is “inactive; negative”; the mutagenic call (Test System: AMES SALMONELLA TYPHIMURIUM, Strain/Indicator: TA1538, Metabolic Activation: NONE, Method: FLASK ASSAY) was “inactive; negative”; the mutagenic call (Test System: AMES SALMONELLA TYPHIMURIUM, Strain/Indicator: TA1538, Metabolic Activation: RAT, LIVER, S-9, AROCLOR 1254, Method: FLASK ASSAY) was “inactive; negative”. In addition, the mutagenic call is, setting by setting: (Test System: MOUSE LYMPHOMA, Strain/Indicator: L5178Y (TK+/TK-), Metabolic Activation: NONE, Method: SUSPENSION/PLATE) “active; positive”; (Test System: MOUSE LYMPHOMA, Strain/Indicator: L5178Y (TK+/TK-), Metabolic Activation: RAT, LIVER, S-9, AROCLOR 1254, Method: SUSPENSION/PLATE) “inactive; negative”.
